Details in all cases: read-out: % displacement at 10 μM
Assay [1] deals with T1, cannabinoid receptor 1 (CB1R) (Mus musculus, UniProt P47746).
T1 construct: gene Cnr1; native receptor in mouse brain membranes
In words: [3H]CP55, […] competition radioligand binding, mouse brain membranes, […] (weak).

Assay [2] deals with T1, cannabinoid receptor 1 (CB1R). In words: [3H]CP55, […] competition radioligand binding, mouse brain membranes, […].
Assay [3] shares this target. The experiment in a line: [3H]CP55, […] competition radioligand binding, mouse brain membranes, […] (positive control).

Here are results for 8 molecules from PMC10747202, “Computational and Experimental Drug Repurposing of FDA-Approved Compounds Targeting the Cannabinoid Receptor CB1” (Pharmaceuticals, 2023).

T1 sequence (P47746 whole entry): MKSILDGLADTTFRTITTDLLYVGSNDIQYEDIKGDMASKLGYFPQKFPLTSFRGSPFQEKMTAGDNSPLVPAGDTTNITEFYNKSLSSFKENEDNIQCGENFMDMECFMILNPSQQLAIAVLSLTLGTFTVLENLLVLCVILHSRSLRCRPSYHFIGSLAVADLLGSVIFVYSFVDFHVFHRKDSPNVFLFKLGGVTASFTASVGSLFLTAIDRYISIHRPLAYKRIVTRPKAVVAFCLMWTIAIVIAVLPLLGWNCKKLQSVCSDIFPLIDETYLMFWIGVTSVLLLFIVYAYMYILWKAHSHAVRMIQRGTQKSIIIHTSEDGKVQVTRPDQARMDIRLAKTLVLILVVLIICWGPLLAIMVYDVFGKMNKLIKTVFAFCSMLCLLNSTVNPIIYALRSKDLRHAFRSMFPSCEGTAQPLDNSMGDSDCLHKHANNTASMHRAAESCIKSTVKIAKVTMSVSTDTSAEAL

As to `Nc1nc(N)c2nc(CNc3ccc(C(=O)N[C@@H](CCC(=O)O)C(=O)O)cc3)cnc2n1` [APGA, Aminopterin], in assay [1], the inhibition at 10 µM is approximately 30%. As to `COc1ccc(CN=c2[nH]c(N3CCC[C@H]3CO)ncc2C(=O)NCc2ncccn2)cc1Cl` [Avanafil], the inhibition at 10 µM in assay [1] was approximately 30%. For `CN(Cc1cnc2nc(N)nc(N)c2n1)c1ccc(C(=O)N[C@@H](CCC(=O)O)C(=O)O)cc1` [Methotrexate], the inhibition at 10 µM in assay [2] is approximately 50%. The same measure, in the same setting: the figure for `CCCCCCCCCCCCCCCCOP(=O)([O-])OCC[N+](C)(C)C` [Miltefosine] is approximately 60%.

For the molecule `O=C(c1ccc(OCCN2CCCCC2)cc1)c1c(-c2ccc(O)cc2)sc2cc(O)ccc12` [Raloxifene], in assay [3], the inhibition at 10 µM was more than 50%. For the molecule `Cc1nnc(C(=O)NC(C)(C)c2nc(C(=O)NCc3ccc(F)cc3)c(O)c(=O)n2C)o1` [Raltegravir], in assay [2], the inhibition at 10 µM was approximately 80%.

For `COC(=O)N(C)c1c(N)nc(-c2nn(Cc3ccccc3F)c3ncccc23)nc1N` [Riociguat], the inhibition at 10 µM in assay [1] was approximately 20%. Turning to `CCCCC(=O)N(Cc1ccc(-c2ccccc2-c2nnn[nH]2)cc1)[C@H](C(=O)O)C(C)C` [Valsartan], the inhibition at 10 µM in assay [1] is approximately 30%.
